From the RepoRT retention time repository (doi:10.1016/j.jhazmat.2019.121712) come the findings set out here.

This series in a line: Thermo Scientific Acclaim RSLC 120 C18, 100 × 2.1 mm, 2.2 µm, 30 °C; A: 90% water + 10% methanol + 0.01% formic acid + 5 mM ammonium formate; B: methanol + 0.01% formic acid + 5 mM ammonium formate; gradient (min/%B) 0.1/1 3/39 14/99.9 16/99.9. The settings on record: stereoisomer not certain.
For `CCOP(=O)(Sc1ccccc1)Sc1ccccc1`, the LC retention time is 10.8 min.

Turning to `CC(C)(C)NCC(O)COc1cccc2c1SCCC2` (configuration not stated), the LC retention time is 6.76 min.

Regarding `c1ccc2[nH]c(-c3cscn3)nc2c1`, the LC retention time came out at 6.15 min. `CCC(CO)NCCNC(CC)CO` (configuration not stated): the LC retention time is 1.93 min. Regarding `NC(Cc1cnc[nH]1)C(=O)O` (configuration not stated), the LC retention time came out at 1.23 min. The result for `CCCCCCC(C)(C)c1ccc(C2CCCC(O)C2)c(O)c1` (configuration not stated) reads 13.1 min; that for `CCC(CC)OC1C=C(C(=O)O)CC(N)C1NC(C)=O` (configuration not stated), 4.73 min.

`CCOC(=O)C1(c2ccccc2)CCC=CC1NC` (configuration not stated): the LC retention time was 5.28 min. The result for `CN=C(NC)NCc1ccccc1` reads 3.97 min; that for `CC(CN(C)C)CN1c2ccccc2Sc2ccccc21` (configuration not stated), 8.1 min. Take `COC(=O)C1C(O)CC2CCC1N2C` (configuration not stated): the LC retention time amounted to 1.38 min.

Consider `CN=CNc1ccc(C)cc1C`, for which the LC retention time was 4.44 min. As for `COC(=O)C1=C(C#N)NC(C)=C(C(=O)OC(C)C)C1c1cccc([N+](=O)[O-])c1` (configuration not stated), the LC retention time was 10.3 min. For the compound `CCCCN(CC)C(=O)SCCC`, the LC retention time came to 11.5 min. Regarding `CCOP(=S)(OCC)SCCSCC`, the LC retention time was 11.5 min. Turning to `CC(C)C1(NC(=O)C2CC3c4cccc5[nH]cc(c45)CC3N(C)C2)OC2(O)C3CCCN3C(=O)C(Cc3ccccc3)N2C1=O` (configuration not stated), the LC retention time was determined as 8.17 min. Then `COc1ccc2c3c1OC1C(=O)CCC4(O)C(C2)NCCC314` (configuration not stated), with 3.71 min; and `CCCN(CC)CC1COC2(CCC(C(C)(C)C)CC2)O1` (configuration not stated), with 9.32 min. Regarding `Cc1ccc(C2(c3ccccc3)NC(=O)NC2=O)cc1` (configuration not stated), the LC retention time stood at 8.12 min. For `CCCCCn1cc(C(=O)c2cccc3ccccc23)c2ccc(O)cc21`, the LC retention time turned out to be 11.2 min. `CCNCC(O)c1cccc(O)c1` (configuration not stated): the LC retention time came to 2.66 min. As to `CNCCC(Oc1ccccc1C)c1ccccc1` (configuration not stated), the LC retention time came to 7.63 min.

For the compound `CC(C)N(C(=O)CS(=O)(=O)O)c1ccccc1`, the LC retention time came out at 5.46 min.

For `CCCc1nn(C)c2c(=O)[nH]c(-c3cc(C(=O)N4CCN(CC)CC4)ccc3OCC)nc12`, the LC retention time amounted to 6.78 min.

As for `O=C1OC(c2ccc(O)cc2)(c2ccc(O)cc2)c2ccccc21`, the LC retention time was determined as 7.06 min.

Take `CCCOc1ccc(S(=O)(=O)N2CCN(CC)CC2)cc1-c1nc(=S)c2c([nH]1)c(CCC)nn2C`: the LC retention time was found to be 10.5 min. `CC=C1CC(C)C(C)(O)C(=O)OCC2=CC[N+]3([O-])CCC(OC1=O)C23` (configuration not stated): the LC retention time came out at 5.07 min.

Take `COc1ccc2cc(CCC(C)=O)ccc2c1`: the LC retention time came to 9.82 min.

With `CN(C)c1ccccc1`, the LC retention time stood at 6.26 min.

On to `CCOP(=O)(OCC)SCSCC`, for which the LC retention time was determined as 8.6 min.

In the case of `CNCC(O)c1cccc(O)c1` (configuration not stated), the LC retention time turned out to be 1.93 min. As to `COP(=S)(OC)SCOC(C)=O`, the LC retention time worked out at 7.16 min. In the case of `O=C(c1cccc2ccccc12)c1cn(CCN2CCOCC2)c2cccc(O)c12`, the LC retention time was 10.1 min.

Regarding `CC(C)CNC(=O)N1CCNC1=O`, the LC retention time came to 5.74 min. For the compound `CC(C)(C(=O)c1cccnc1)c1cccnc1`, the LC retention time amounted to 6.21 min. With `COc1ccc(CC(C)N)cc1OC` (configuration not stated), the LC retention time amounted to 3.94 min. The result for `CN(C)c1ccc(N=Nc2ccccc2)cc1` reads 12.4 min; that for `NC(=O)N1c2ccccc2CC(=O)c2ccccc21`, 6.46 min. Then `c1ccc2c(CC3=NCCN3)cccc2c1`, with 4.84 min; and `CCOC(=O)C(CCc1ccccc1)NC(C)C(=O)N1CCCC1C(=O)O` (configuration not stated), with 6.83 min; and `c1ccc2c(c1)Cc1ccccc1N1CCNCC21` (configuration not stated), with 6.86 min. The result for `NC(=O)C(CCN1CCCCC1)(c1ccccc1)c1ccccc1` reads 5.19 min.

`COc1ccc(C2Sc3ccccc3N(CCN(C)C)C(=O)C2OC(C)=O)cc1` (configuration not stated): the LC retention time stood at 7.18 min. The result for `CCNC(C)Cc1ccccc1` (configuration not stated) reads 4.4 min; that for `CCNc1nc(NC(C)C)nc(OC)n1`, 7.81 min; that for `c1ccc(CN2CCNCC2)cc1`, 4.23 min. `CCCCCCC(C)(C)c1ccc(C2CC(O)CCC2CCCO)c(O)c1` (configuration not stated): the LC retention time turned out to be 12 min. For `O=C(O)c1ccc2n[nH]nc2c1`, the LC retention time stood at 3.81 min. For the compound `CNCCC=C1c2ccccc2CCc2ccccc21`, the LC retention time was 8.51 min. Consider `CCCCCn1cc(C(=O)Cc2ccc(OC)cc2)c2ccccc21`, for which the LC retention time was 11.6 min. Regarding `CNS(=O)(=O)Cc1ccc2[nH]cc(CCN(C)C)c2c1`, the LC retention time amounted to 3.43 min.

For `CC1CC(C)C(=O)C(C(O)CC2CC(=O)NC(=O)C2)C1` (configuration not stated), the LC retention time was found to be 5.99 min. With `CC(Cc1ccccc1)NCCn1cnc2c1c(=O)n(C)c(=O)n2C` (configuration not stated), the LC retention time came to 5.06 min. On to `CN1CC(=O)N2C(Cc3c([nH]c4ccccc34)C2c2ccc3c(c2)OCO3)C1=O` (configuration not stated), for which the LC retention time was 8.26 min. As to `COc1cccc(C2(O)CCCCC2CN)c1` (configuration not stated), the LC retention time is 5.19 min. In the case of `CC1C(c2ccccc2)OCCN1C` (configuration not stated), the LC retention time is 4.06 min. As for `CNC(=O)Oc1ccc2c(c1)C1(C)CCN(C)C1N2C` (configuration not stated), the LC retention time was found to be 3.89 min.

As for `COc1ccc2c(c1)N(CC(C)CN(C)C)c1ccccc1S2` (configuration not stated), the LC retention time was determined as 8.14 min. With `CC(N)Cc1ccc(O)cc1` (configuration not stated), the LC retention time is 2.98 min. Turning to `CCc1cccc(C)c1N1C(=O)COCC1C` (configuration not stated), the LC retention time turned out to be 7.89 min. Consider `COC(=O)c1ccccc1S(=O)(=O)NC(=O)Nc1nc(C)cc(C)n1`, for which the LC retention time worked out at 6.92 min. The result for `C(=Cc1ccccc1)CN1CCN(C(c2ccccc2)c2ccccc2)CC1` reads 9.86 min; that for `Cc1ccc(C(=O)C(C)N2CCCC2)cc1` (configuration not stated), 4.76 min; that for `COc1cc2c(cc1OC)C(=O)C(CC1CCN(Cc3ccccc3)CC1)C2` (configuration not stated), 5.81 min.

For the compound `CCCCCn1nc(C(=O)NC23CC4CC(CC(C4)C2)C3)c2ccccc21`, the LC retention time was found to be 14 min.

Take `CCN(CC)CCN1c2ccccc2Sc2ccccc21`: the LC retention time was 7.76 min. Consider `CC=C1CC(C)C(O)(CO)C(=O)OCC2=CC[N+]3([O-])CCC(OC1=O)C23` (configuration not stated), for which the LC retention time was 4.33 min.

Regarding `CC12CCC3c4ccc(O)cc4CCC3C1CCC2=O` (configuration not stated), the LC retention time was found to be 9.56 min. Regarding `CCCCCn1cc(C(=O)Oc2cccc3cccnc23)c2ccccc21`, the LC retention time is 11.9 min. As for `CC(C)(C)NCC(O)c1cc(O)cc(O)c1` (configuration not stated), the LC retention time is 3.11 min. Regarding `CN(C)CCOC(C)(c1ccccc1)c1ccccn1` (configuration not stated), the LC retention time came to 5.18 min.

Consider `CNC(C)C(O)c1ccc(O)cc1` (configuration not stated), for which the LC retention time was found to be 2.05 min. Take `CCOS(=O)(=O)O`: the LC retention time was found to be 1.58 min. Then `CNc1nc(C)c(C)c(OC(=O)N(C)C)n1`, with 5.89 min. On to `CNCC(c1ccc(OC)cc1)C1(O)CCCCC1` (configuration not stated), for which the LC retention time worked out at 6.18 min. In the case of `CCCCc1c(C)nc(N(C)C)[nH]c1=O`, the LC retention time worked out at 7.7 min.

Turning to `CCCc1nn(C)c2c(=S)nc(-c3cc(C(=S)N4CCN(C)CC4)ccc3OCC)[nH]c12`, the LC retention time was found to be 11.5 min. The result for `CCCCOC(=O)N(C)SN(C)C(=O)Oc1cccc2c1OC(C)(C)C2` reads 12.1 min. For the compound `CNC(C)C(=O)c1ccc(OC)cc1` (configuration not stated), the LC retention time was 4.16 min. For the compound `Nc1ccc([N+](=O)[O-])cc1C(=O)c1ccccc1`, the LC retention time was 8.99 min.

`Cc1c(C(=O)c2cccc3ccccc23)c2cccc3c2n1C(CN1CCOCC1)CO3` (configuration not stated): the LC retention time was 10.9 min. Turning to `CNC(C)C(O)c1ccccc1` (configuration not stated), the LC retention time worked out at 3.76 min. Turning to `NC(=O)c1ncn(C2OC(CO)C(O)C2O)n1` (configuration not stated), the LC retention time came to 1.36 min. Regarding `CC(C)c1ccc(NC(N)=O)cc1`, the LC retention time was found to be 7.76 min. Take `CCN(CC)CCOC(=O)c1ccc(N)cc1`: the LC retention time is 3.21 min.

On to `Nc1ccc(S(=O)(=O)Nc2nccs2)cc1`, for which the LC retention time is 3.63 min. As for `Cc1ccc(N)c(C)c1`, the LC retention time came out at 5.04 min.

`CNC(=O)C(=NOC)c1ccccc1COc1cc(C)ccc1C`: the LC retention time came out at 10.7 min. On to `COC1CC(OC2C(C)OC(OC3C(C)=CCC4CC(CC5(CCC(C)C(C(C)C)O5)O4)OC(=O)C4C=C(C)C(O)C5OCC(=CC=CC3C)C45O)CC2OC)OC(C)C1O` (configuration not stated), for which the LC retention time was 14.2 min. In the case of `CC1(c2ccc(Oc3ccccc3)cc2)OC(=O)N(Nc2ccccc2)C1=O` (configuration not stated), the LC retention time turned out to be 11 min. Consider `NC(CO)C(=O)NNCc1ccc(O)c(O)c1O` (configuration not stated), for which the LC retention time came out at 1.38 min.

On to `COc1cc(CC(C)N)c(OC)cc1C` (configuration not stated), for which the LC retention time turned out to be 5.83 min. The result for `CCCC(NC)C(=O)c1ccc2c(c1)OCO2` (configuration not stated) reads 4.99 min; that for `CC12CCC(O)CC1CCC1C2C(=O)CC2(C)C1CCC2(O)C(=O)CO` (configuration not stated), 9.21 min; that for `CNC(=O)ON=C(CSC)C(C)(C)C`, 7.8 min. Regarding `CNC(=O)ON=C(C)C(C)S(C)(=O)=O` (configuration not stated), the LC retention time amounted to 3.66 min. Take `CCC(C)(C)c1ccc(CC(C)CN2CC(C)OC(C)C2)cc1` (configuration not stated): the LC retention time amounted to 12.9 min. For the compound `COc1cc(OC)nc(NC(=O)NS(=O)(=O)c2c(-c3nnn(C)n3)cnn2C)n1`, the LC retention time came to 7.62 min. For the compound `CNC(=O)Oc1ccccc1C(C)C`, the LC retention time stood at 8.12 min. Take `CC(=O)SC1CC2=CC(=O)CCC2(C)C2CCC3(C)C(CCC34CCC(=O)O4)C12` (configuration not stated): the LC retention time was found to be 9.24 min. Take `CN(C)CC(CN1c2ccccc2Sc2ccccc21)N(C)C` (configuration not stated): the LC retention time turned out to be 8.54 min. For the compound `CC(=O)OCCC(SC(C)=O)=C(C)N(C=O)Cc1cnc(C)nc1N`, the LC retention time amounted to 4.46 min.
